Measured values reported in US12642860B2, “Filamentous nanostructures and their use for treatment of pulmonary disease” (THE JOHNS HOPKINS UNIVERSITY, priority 2019, dated 2026).

Experiments:
[1] = Loading capacity of drugs/dye within KPA filaments; assay type: physicochemical; details: encapsulated in KPA filaments, % by mass
From the text: FIGS. 20A-20C show (20A) the molecular structure of the lung disease-relevant drugs and fluorescent dye used in loading within the supramolecular filaments: paclitaxel (PTX, MW=853.92 g/mol), the anticancer drug; coumarin 6 (Cou6, MW=350.44 g/mol), the green fluorescent dye; and budesonide (BUD, MW=430.54 g/mol), the anti-inflammatory glucocorticoid used to treat symptoms of asthma and chronic obstructive pulmonary disease (top). (20B) The encapsulation process of hydrophobic drugs and dyes within supramolecular peptide amphiphile (PA)-based filaments, where dissolution of PA monomers and drug/dye in aqueous solutions results in their self-assembly with the drug/dye loaded within the hydrophobic core (left). The loading capacity of PTX, Cou6, and BUD based on mass (left axis, solid bars) and mole (right axis, checkered bars) percent within KPA supramolecular filaments (right). Data are given as mean±SD (n=5). (20C) Representative transmission electron microscopy (TEM) images of KPA filaments loaded with PTX (i, ii), Cou6 (iii, iv), and BUD (v, vi) before and after nebulization at 500 μM. Diameters are given as mean±SD (n=35).
With better insight into nebulization stability and the mechanism of supramolecular filament breakdown, we next sought to assess whether these systems can successfully carry drugs and dyes within aerosol droplets for potential inhalation-based therapies. […]

[2] = Jet nebulizer release profile and output; assay type: physicochemical; details: within KPA filaments 1 mM
Method: FIGS. 24A-24F are jet nebulizer release profiles of EPA, OPA, and KPA supramolecular filaments with starting formulation concentrations at (24A) 10 μM, (24B) 100 μM, and (24C) 1000 μM, showing a linear release pattern for each system over the course of a 10 min nebulization event (3 mL solution). Data given represent mean #SD (n=3); dashed lines represent line of best fit from linear regression analysis. (24D) The aerosol output rate (μg/min) of the supramolecular filaments from a jet nebulizer at different formulation concentrations, showing no statistically significant difference (ns) between filaments at the same concentration and output rate scales linearly with increasing concentration. Data are given as mean±SD (p>0.05 amongst filament systems, ****p<0.0001 amongst concentrations, two-way ANOVA, n=3). […]
We next monitored the release pattern of the supramolecular filaments in aerosol droplets from a jet nebulizer device alongside the output rate. First analyzing the blank EPA, OPA, and KPA filaments, 3 mL solutions of the filaments were loaded into a jet nebulizer at varying concentrations and the remaining concentration of PA molecules and fluid weight loss were monitored over the course of a 10 min nebulization event. FIGS. 24A-C represents the measured release profile of the three filament systems at 10 µM, 100 μM, and 1000 μM, respectively. […]

CCN(CC)c1ccc2cc(-c3nc4ccccc4s3)c(=O)oc2c1 [Cou6, coumarin 6]
loading capacity by mass within KPA filaments [1]: 3.7%
aerosol output rate of encapsulated molecules [2]: comparable but higher than PTX
